In patent publication US20140105996A1, “Avian-Based Treatment” (Cocky Smart Pty Ltd, priority 2011, published 2014):

System: A2058 melanoma cells
Experiment: Growth of A2058 melanoma cells with EP-2 or TPP (Examples 1-3)
Assay type: cell-based
Description: Saturated solutions of bird extract EP-2, 10 ng/mL triphenyl phosphate (TPP) or control media were used to saturate growth medium containing melanoma cells (A2058 Melanoma cells) at a concentration of approximately 1.2×10^4 cells/well or 1.0×10^4 cells/well. All results are average cell counts for experiments performed in triplicate (see FIG. 1). TPP was investigated on the basis of the findings in Zurhaar WO2008/019452 “Insect Repellent” that the insect repellent factor in an avian extract was TPP.
Pooled solvent vehicle (ethanol, methanol and pentane—used for EP-2 extraction), avian extract EP-2 and TPP were applied to 4×10^4 A2058 cells in 12 well plates.
To further investigate the effect of EP-2 on cells in general, a ⅕ dilution of avian extract EP-2 was placed on 1×10^4 A2058 melanoma cells and HEK293 non-cancerous human embryonic kidney cells.

O=P(Oc1ccccc1)(Oc1ccccc1)Oc1ccccc1 [TPP, Triphenyl phosphate]
lower growth rate than cells containing control medium (Example 1, by day 9, 10 ng/mL TPP): 25% | effect on cell growth (Example 2): moderate effect
